According to PMC7488488 (Acta Pharmaceutica Sinica. B, 2019):

Tests used:
U87MG cells = experiment: MTT cell proliferation assay; assay type: cell-based; details: Homo sapiens, U-87 MG, 24 h, read-out: Anti-proliferative activity IC50, U87MG
MDM2 = MDM2 (Homo sapiens, UniProt Q00987); experiment: TR-FRET; assay type: binding; details: for inhibition at 1 µM: read-out: Inhibition rate at 1.0 μmol/L, MDM2
T98G cells = experiment: MTT cell proliferation assay; assay type: cell-based; details: Homo sapiens, T98G, 24 h, read-out: Anti-proliferative activity IC50, T98G
U251 cells = experiment: MTT cell proliferation assay; assay type: cell-based; details: Homo sapiens, U-251, 24 h, read-out: Anti-proliferative activity IC50, U251

MDM2, sequence (Q00987 whole entry): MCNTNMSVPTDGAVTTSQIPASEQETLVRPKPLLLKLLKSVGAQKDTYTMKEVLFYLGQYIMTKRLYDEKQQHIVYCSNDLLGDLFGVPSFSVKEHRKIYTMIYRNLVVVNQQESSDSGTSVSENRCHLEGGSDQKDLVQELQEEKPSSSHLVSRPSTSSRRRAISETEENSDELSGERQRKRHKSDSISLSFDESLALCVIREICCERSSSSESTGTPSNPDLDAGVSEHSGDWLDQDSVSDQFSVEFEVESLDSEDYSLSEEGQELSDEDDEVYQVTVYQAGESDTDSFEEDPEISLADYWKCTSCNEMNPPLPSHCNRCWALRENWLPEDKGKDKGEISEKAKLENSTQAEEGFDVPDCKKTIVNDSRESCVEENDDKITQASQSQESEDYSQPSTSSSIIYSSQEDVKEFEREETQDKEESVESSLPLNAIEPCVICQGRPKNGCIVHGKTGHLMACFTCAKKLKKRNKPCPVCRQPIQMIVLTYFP

SMILES: CCOC(=O)[C@H]1Cc2c(cc([N+](=O)[O-])cc2[N+](=O)[O-])[C@@H](O)[C@@]12C(=O)Nc1ccc(C)cc12 [4j, Ethyl (1′R,3R,3′S)-1′-hydroxy-5-methyl-5′,7′-dinitro-2-oxo-3′,4′-dihydro-1′H-spiro[indoline-3,2′-naphthalene]-3′-carboxylate]
- IC50 (U87MG cells): 31.1 ± 1.76 µM
- inhibition at 1 µM (MDM2): 64.4 ± 7.2%
- IC50 (T98G cells): 39.3 ± 3.6 µM
- IC50 (U251 cells): 38.9 ± 4.5 µM

SMILES: CCOC(=O)[C@H]1Cc2c(cc([N+](=O)[O-])cc2[N+](=O)[O-])[C@@H](O)[C@@]12C(=O)Nc1cccc(Br)c12 [4f, Ethyl (1′R,3R,3′S)-4-bromo-1′-hydroxy-5′,7′-dinitro-2-oxo-3′,4′-dihydro-1′H-spiro[indoline-3,2′-naphthalene]-3′-carboxylate]
- IC50 (U87MG cells): 20.7 ± 3.5 µM
- inhibition at 1 µM (MDM2): 66.9 ± 9.1%
- IC50 (T98G cells): 27.2 ± 3 µM
- IC50 (U251 cells): 25.8 ± 4.2 µM

SMILES: O=C(c1ccc(F)cc1)[C@H]1Cc2c(cc([N+](=O)[O-])cc2[N+](=O)[O-])[C@H](O)[C@]12C(=O)Nc1ccccc12 [4m′, (1′S,3S,3′S)-3′-(4-Fluorobenzoyl)-1′-hydroxy-5′,7′-dinitro-3′,4′-dihydro-1′H-spiro[indoline-3,2′-naphthalen]-2-one]
- IC50 (U87MG cells): > 50 µM
- inhibition at 1 µM (MDM2): 36.2%
- IC50 (T98G cells): > 50 µM
- IC50 (U251 cells): > 50 µM

SMILES: CCOC(=O)[C@H]1Cc2c(cc([N+](=O)[O-])cc2[N+](=O)[O-])[C@H](O)[C@]12C(=O)Nc1cc(Br)ccc12 [4h′, Ethyl (1′S,3S,3′S)-6-bromo-1′-hydroxy-5′,7′-dinitro-2-oxo-3′,4′-dihydro-1′H-spiro[indoline-3,2′-naphthalene]-3′-carboxylate]
- IC50 (U87MG cells): 47.6 µM
- inhibition at 1 µM (MDM2): 61.2%
- IC50 (T98G cells): > 50 µM
- IC50 (U251 cells): > 50 µM

SMILES: CCOC(=O)[C@H]1Cc2c(cc([N+](=O)[O-])cc2[N+](=O)[O-])[C@@H](O)[C@@]12C(=O)Nc1ccc(F)cc12 [4b, Ethyl (1′R,3R,3′S)-5-fluoro-1′-hydroxy-5′,7′-dinitro-2-oxo-3′,4′-dihydro-1′H-spiro[indoline-3,2′-naphthalene]-3′-carboxylate]
- IC50 (U87MG cells): 25.7 ± 1.4 µM
- inhibition at 1 µM (MDM2): 81.4 ± 10.2%
- IC50 (T98G cells): 49 ± 6.3 µM
- IC50 (U251 cells): 32.6 ± 3.5 µM

SMILES: O=C(c1ccc(Br)cc1)[C@H]1Cc2c(cc([N+](=O)[O-])cc2[N+](=O)[O-])[C@H](O)[C@]12C(=O)Nc1ccccc12 [4o′, (1′S,3S,3′S)-3′-(4-Bromobenzoyl)-1′-hydroxy-5′,7′-dinitro-3′,4′-dihydro-1′H-spiro[indoline-3,2′-naphthalen]-2-one]
- IC50 (U87MG cells): > 50 µM
- inhibition at 1 µM (MDM2): 29%
- IC50 (T98G cells): > 50 µM
- IC50 (U251 cells): > 50 µM

SMILES: COc1ccc(C(=O)[C@H]2Cc3c(cc([N+](=O)[O-])cc3[N+](=O)[O-])[C@H](O)[C@]23C(=O)Nc2ccccc23)cc1 [4p′, (1′S,3S,3′S)-1′-Hydroxy-3′-(4-methoxybenzoyl)-5′,7′-dinitro-3′,4′-dihydro-1′H-spiro[indoline-3,2′-naphthalen]-2-one]
- IC50 (U87MG cells): > 50 µM
- inhibition at 1 µM (MDM2): 26.9%
- IC50 (T98G cells): > 50 µM
- IC50 (U251 cells): > 50 µM

SMILES: CCOC(=O)[C@H]1Cc2c(cc([N+](=O)[O-])cc2[N+](=O)[O-])[C@H](O)[C@]12C(=O)Nc1c(F)cccc12 [4c′, Ethyl (1′S,3S,3′S)-7-fluoro-1′-hydroxy-5′,7′-dinitro-2-oxo-3′,4′-dihydro-1′H-spiro[indoline-3,2′-naphthalene]-3′-carboxylate]
- IC50 (U87MG cells): 59.9 µM
- inhibition at 1 µM (MDM2): 45.3%
- IC50 (T98G cells): > 50 µM
- IC50 (U251 cells): > 50 µM

SMILES: CCOC(=O)[C@H]1Cc2c(cc([N+](=O)[O-])cc2[N+](=O)[O-])[C@H](O)[C@]12C(=O)Nc1ccc(Br)cc12 [4g′, Ethyl (1′S,3S,3′S)-5-bromo-1′-hydroxy-5′,7′-dinitro-2-oxo-3′,4′-dihydro-1′H-spiro[indoline-3,2′-naphthalene]-3′-carboxylate]
- IC50 (U87MG cells): > 50 µM
- IC50 (MDM2): 2.5 ± 0.3 µM
- inhibition at 1 µM (MDM2): 51.9%
- IC50 (T98G cells): > 50 µM
- IC50 (U251 cells): > 50 µM

SMILES: O=C(c1ccccc1)[C@H]1Cc2c(cc([N+](=O)[O-])cc2[N+](=O)[O-])[C@@H](O)[C@@]12C(=O)Nc1ccccc12 [4k, (1′R,3R,3′S)-3′-Benzoyl-1′-hydroxy-5′,7′-dinitro-3′,4′-dihydro-1′H-spiro[indoline-3,2′-naphthalen]-2-one]
- IC50 (U87MG cells): 38.7 ± 6.5 µM
- inhibition at 1 µM (MDM2): 46.4 ± 4.9%
- IC50 (T98G cells): 43.7 ± 6.6 µM
- IC50 (U251 cells): 53.8 ± 9 µM

SMILES: CCOC(=O)[C@H]1Cc2c(cc([N+](=O)[O-])cc2[N+](=O)[O-])[C@H](O)[C@]12C(=O)Nc1ccc(F)cc12 [4b′, Ethyl (1′S,3S,3′S)-5-fluoro-1′-hydroxy-5′,7′-dinitro-2-oxo-3′,4′-dihydro-1′H-spiro[indoline-3,2′-naphthalene]-3′-carboxylate]
- IC50 (U87MG cells): > 50 µM
- inhibition at 1 µM (MDM2): 55.6%
- IC50 (T98G cells): > 50 µM
- IC50 (U251 cells): > 50 µM

SMILES: O=C(c1ccccc1F)[C@H]1Cc2c(cc([N+](=O)[O-])cc2[N+](=O)[O-])[C@H](O)[C@]12C(=O)Nc1ccccc12 [4l′, (1′S,3S,3′S)-3′-(2-Fluorobenzoyl)-1′-hydroxy-5′,7′-dinitro-3′,4′-dihydro-1′H-spiro[indoline-3,2′-naphthalen]-2-one]
- IC50 (U87MG cells): > 50 µM
- inhibition at 1 µM (MDM2): 31.6%
- IC50 (T98G cells): > 50 µM
- IC50 (U251 cells): > 50 µM

SMILES: CCOC(=O)[C@H]1Cc2c(cc([N+](=O)[O-])cc2[N+](=O)[O-])[C@@H](O)[C@@]12C(=O)Nc1ccc(Br)cc12 [4g, Ethyl (1′R,3R,3′S)-5-bromo-1′-hydroxy-5′,7′-dinitro-2-oxo-3′,4′-dihydro-1′H-spiro[indoline-3,2′-naphthalene]-3′-carboxylate]
- IC50 (U87MG cells): 4.9 ± 0.5 µM
- IC50 (MDM2): 0.28 ± 0.06 µM
- inhibition at 1 µM (MDM2): 92.3 ± 11.2%
- IC50 (T98G cells): 9.5 ± 0.7 µM
- IC50 (U251 cells): 8.6 ± 0.6 µM

SMILES: CCOC(=O)[C@H]1Cc2c(cc([N+](=O)[O-])cc2[N+](=O)[O-])[C@@H](O)[C@@]12C(=O)Nc1cc(Br)ccc12 [4h, Ethyl (1′R,3R,3′S)-6-bromo-1′-hydroxy-5′,7′-dinitro-2-oxo-3′,4′-dihydro-1′H-spiro[indoline-3,2′-naphthalene]-3′-carboxylate]
- IC50 (U87MG cells): 20.4 ± 3.3 µM
- inhibition at 1 µM (MDM2): 76.7 ± 5.2%
- IC50 (T98G cells): 14.4 ± 2.8 µM
- IC50 (U251 cells): 18.3 ± 1.5 µM

SMILES: O=C(c1ccc(Cl)c(Cl)c1)[C@H]1Cc2c(cc([N+](=O)[O-])cc2[N+](=O)[O-])[C@H](O)[C@]12C(=O)Nc1ccccc12 [4n′, (1′S,3S,3′S)-3′-(3,4-Dichlorobenzoyl)-1′-hydroxy-5′,7′-dinitro-3′,4′-dihydro-1′H-spiro[indoline-3,2′-naphthalen]-2-one]
- IC50 (U87MG cells): > 50 µM
- inhibition at 1 µM (MDM2): 36.3%
- IC50 (T98G cells): > 50 µM
- IC50 (U251 cells): > 50 µM

SMILES: O=C(c1ccc(Br)cc1)[C@H]1Cc2c(cc([N+](=O)[O-])cc2[N+](=O)[O-])[C@@H](O)[C@@]12C(=O)Nc1ccccc12 [4o, (1′R,3R,3′S)-3′-(4-Bromobenzoyl)-1′-hydroxy-5′,7′-dinitro-3′,4′-dihydro-1′H-spiro[indoline-3,2′-naphthalen]-2-one]
- IC50 (U87MG cells): 41.6 ± 4.3 µM
- inhibition at 1 µM (MDM2): 47.1 ± 5.8%
- IC50 (T98G cells): 45.7 ± 6.7 µM
- IC50 (U251 cells): 44.2 ± 4.6 µM

SMILES: O=C(c1ccccc1)[C@H]1Cc2c(cc([N+](=O)[O-])cc2[N+](=O)[O-])[C@H](O)[C@]12C(=O)Nc1ccccc12 [4k′, (1′S,3S,3′S)-3′-Benzoyl-1′-hydroxy-5′,7′-dinitro-3′,4′-dihydro-1′H-spiro[indoline-3,2′-naphthalen]-2-one]
- IC50 (U87MG cells): > 50 µM
- inhibition at 1 µM (MDM2): 35.4%
- IC50 (T98G cells): > 50 µM
- IC50 (U251 cells): > 50 µM
